According to patent publication US6525001B1, “Substituted pyrimidine and pyridine herbicides” (Mid-American Commercialization Corporation, priority 1997, dated 2003):

Experiments:
Format in all cases: in vivo
Design in all cases: key: 0 is no effect; 10 is complete control
[1] = test system: duck salad (Heteranthera limosa); assay: Test B flood test
Outline: (§1)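 Flood test on plants grown to the 2-leaf stage; treated plants kept in greenhouse twelve to sixteen days, then visually rated against controls on a 0 (no effect) to 10 (complete control) scale.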

[2] = test system: bamyardgrass (Echinochloa crus-galli); assay: Test B flood test
Outline: as §1

[3] = test system: smallflower flatsedge (Cyperus difformis); assay: Test B flood test
Outline: as §1

rice (Oryza sativa) = assay: Test B flood test
Outline: as §1

soybean (Glycine max) = assay: Test B pre-/postemergence
Source text: (§2) Seeds of bedstraw (Galium aparine), blackgrass (Alopecurus myosuroides), broadleaf signalgrass (Brachiaria decumbens), cocklebur (Xanthium strumarium), corn (Zea mays), crabgrass (Digitaria sanguinalis), giant foxtail (Setaria faberii), lambsquarters (Chenopodium album), momingglory (Ipomoea hederacea), pigweed (Amaranthus retroflexus), rape (Brassica napus), soybean (Glycine max), sugar beet (Beta vulgaris), velvetleaf (Abutilon theophrasti), wheat (Triticum aestivum), wild oat (Avena fatua) and purple nutsedge (Cyperus rotundus) tubers were planted and treated preemergence with test chemicals formulated in a non-phytotoxic solvent mixture which included a surfactant.
(§3) At the same time, these crop and weed species were also treated with postemergence applications of test chemicals formulated in the same manner. Plants ranged in height from 2 to 18 cm (1- to 4-leaf stage) for postemergence treatments. Plant species in the flood test consisted of rice (Oryza sativa), smallflower flatsedge (Cyperus difformis), duck salad (Heteranthera limosa) and bamyardgrass (Echinochloa crus-galli) grown to the 2-leaf stage for testing. Treated plants and controls were maintained in a greenhouse for twelve to sixteen days, after which all species were compared to controls and visually evaluated. Plant response ratings, summarized in Table B, are based on a scale of 0 to 10 where 0 is no effect and 10 is complete control. A dash (−) response means no test result.

[4] = test system: bedstraw (Galium aparine); assay: Test B pre-/postemergence
Source text: as §2, §3

wild oat (Avena fatua) = assay: Test B pre-/postemergence
Source text: as §2, §3

[5] = test system: broadleaf signalgrass (Brachiaria decumbens); assay: Test B pre-/postemergence
Source text: as §2, §3

[6] = test system: momingglory (Ipomoea hederacea); assay: Test B pre-/postemergence
Source text: as §2, §3

[7] = test system: crabgrass (Digitaria sanguinalis); assay: Test B pre-/postemergence
Source text: as §2, §3

[8] = test system: pigweed (Amaranthus retroflexus); assay: Test B pre-/postemergence
Source text: as §2, §3

[9] = test system: velvetleaf (Abutilon theophrasti); assay: Test B pre-/postemergence
Source text: as §2, §3

[10] = test system: cocklebur (Xanthium strumarium); assay: Test B pre-/postemergence
Source text: as §2, §3

[11] = test system: purple nutsedge (Cyperus rotundus); assay: Test B pre-/postemergence
Source text: as §2, §3

rape (Brassica napus) = assay: Test B pre-/postemergence
Source text: as §2, §3

[12] = test system: sugar beet (Beta vulgaris); assay: Test B pre-/postemergence
Source text: as §2, §3

[13] = test system: blackgrass (Alopecurus myosuroides); assay: Test B pre-/postemergence
Source text: as §2, §3

[14] = test system: wheat (Triticum aestivum); assay: Test B pre-/postemergence
Source text: as §2, §3

[15] = test system: giant foxtail (Setaria faberii); assay: Test B pre-/postemergence; details: for Plant response rating, Giant foxtail: Postemergence; for Giant foxtail plant response rating: Preemergence
Source text: as §2, §3

corn (Zea mays) = assay: Test B pre-/postemergence
Source text: as §2, §3

[16] = Rate 62 g/ha, Postemergence (flood test)
[17] = Rate 125 g/ha, Postemergence, flood test
[18] = Rate 250 g/ha, Postemergence (flood test species)

Structure (SMILES): COC(=O)C(c1cccc(C(F)(F)F)c1)c1nc(-c2ccc(C(F)(F)F)cc2)ncc1C (racemic) [Compound 18]
- Plant response rating, Ducksalad [1, 16]: 1
- Plant response rating, Ducksalad [1, 17]: 2
- Plant response rating, Ducksalad [1, 18]: 2
- Plant response rating, Barnyardgrass [2, 16]: 2
- Plant response rating, Barnyardgrass [2, 17]: 1
- Plant response rating, Barnyardgrass [2, 18]: 2
- Plant response rating, S. Flatsedge [3, 16]: 9
- Plant response rating, S. Flatsedge [3, 17]: 1
- Plant response rating, S. Flatsedge [3, 18]: 2
- Plant response rating, Rice (rice (Oryza sativa); [16]): 1
- Plant response rating, Rice (rice (Oryza sativa); [17]): 0
- Plant response rating, Rice (rice (Oryza sativa); [18]): 0
- Plant response rating, Soybean (soybean (Glycine max); Rate 62 g/ha, Postemergence): 3
- Soybean plant response rating (soybean (Glycine max); Rate 62 g/ha, Preemergence): 0
- Plant response rating, Soybean (soybean (Glycine max); Rate 125 g/ha, Postemergence): 4
- Soybean plant response rating (soybean (Glycine max); Rate 125 g/ha, Preemergence): 0
- Plant response rating, Soybean (soybean (Glycine max); Rate 250 g/ha, Postemergence): 6
- Plant response rating, Soybean (soybean (Glycine max); Rate 250 g/ha, Preemergence): 0
- Plant response rating, Bedstraw ([4]; Rate 62 g/ha, Postemergence): 7
- Bedstraw plant response rating ([4]; Rate 62 g/ha, Preemergence): 0
- Plant response rating, Bedstraw ([4]; Rate 125 g/ha, Postemergence): 8
- Bedstraw plant response rating ([4]; Rate 125 g/ha, Preemergence): 2
- Plant response rating, Bedstraw ([4]; Rate 250 g/ha, Postemergence): 9
- Plant response rating, Bedstraw ([4]; Rate 250 g/ha, Preemergence): 5
- Plant response rating, Wild oats (wild oat (Avena fatua); Rate 62 g/ha, Postemergence): 3
- Wild oats plant response rating (wild oat (Avena fatua); Rate 62 g/ha, Preemergence): 2
- Plant response rating, Wild oats (wild oat (Avena fatua); Rate 125 g/ha, Postemergence): 5
- Wild oats plant response rating (wild oat (Avena fatua); Rate 125 g/ha, Preemergence): 3
- Plant response rating, Wild oats (wild oat (Avena fatua); Rate 250 g/ha, Postemergence): 5
- Plant response rating, Wild oats (wild oat (Avena fatua); Rate 250 g/ha, Preemergence): 5
- Plant response rating, B. signalgrass ([5]; Rate 62 g/ha, Postemergence): 2
- B. signalgrass plant response rating ([5]; Rate 62 g/ha, Preemergence): 0
- Plant response rating, B. signalgrass ([5]; Rate 125 g/ha, Postemergence): 2
- B. signalgrass plant response rating ([5]; Rate 125 g/ha, Preemergence): 1
- Plant response rating, B. signalgrass ([5]; Rate 250 g/ha, Postemergence): 3
- Plant response rating, B. signalgrass ([5]; Rate 250 g/ha, Preemergence): 2
- Plant response rating, Morningglory ([6]; Rate 62 g/ha, Postemergence): 3
- Morningglory plant response rating ([6]; Rate 62 g/ha, Preemergence): 1
- Plant response rating, Morningglory ([6]; Rate 125 g/ha, Postemergence): 8
- Morningglory plant response rating ([6]; Rate 125 g/ha, Preemergence): 4
- Plant response rating, Morningglory ([6]; Rate 250 g/ha, Postemergence): 8
- Plant response rating, Morningglory ([6]; Rate 250 g/ha, Preemergence): 6
- Plant response rating, Crabgrass ([7]; Rate 62 g/ha, Postemergence): 1
- Crabgrass plant response rating ([7]; Rate 62 g/ha, Preemergence): 0
- Plant response rating, Crabgrass ([7]; Rate 125 g/ha, Postemergence): 2
- Crabgrass plant response rating ([7]; Rate 125 g/ha, Preemergence): 0
- Plant response rating, Crabgrass ([7]; Rate 250 g/ha, Postemergence): 3
- Plant response rating, Crabgrass ([7]; Rate 250 g/ha, Preemergence): 6
- Plant response rating, Redroot pigweed ([8]; Rate 62 g/ha, Postemergence): 6
- Redroot pigweed plant response rating ([8]; Rate 62 g/ha, Preemergence): 0
- Plant response rating, Redroot pigweed ([8]; Rate 125 g/ha, Postemergence): 6
- Redroot pigweed plant response rating ([8]; Rate 125 g/ha, Preemergence): 3
- Plant response rating, Redroot pigweed ([8]; Rate 250 g/ha, Postemergence): 9
- Plant response rating, Redroot pigweed ([8]; Rate 250 g/ha, Preemergence): 7
- Plant response rating, Velvetleaf ([9]; Rate 62 g/ha, Postemergence): 5
- Velvetleaf plant response rating ([9]; Rate 62 g/ha, Preemergence): 0
- Plant response rating, Velvetleaf ([9]; Rate 125 g/ha, Postemergence): 6
- Velvetleaf plant response rating ([9]; Rate 125 g/ha, Preemergence): 0
- Plant response rating, Velvetleaf ([9]; Rate 250 g/ha, Postemergence): 7
- Plant response rating, Velvetleaf ([9]; Rate 250 g/ha, Preemergence): 0
- Plant response rating, Cocklebur ([10]; Rate 62 g/ha, Postemergence): 6
- Plant response rating, Cocklebur ([10]; Rate 125 g/ha, Postemergence): 7
- Plant response rating, Cocklebur ([10]; Rate 250 g/ha, Postemergence): 8
- Plant response rating, Cocklebur ([10]; Rate 250 g/ha, Preemergence): 0
- Plant response rating, Nutsedge ([11]; Rate 62 g/ha, Postemergence): 0
- Nutsedge plant response rating ([11]; Rate 62 g/ha, Preemergence): 0
- Plant response rating, Nutsedge ([11]; Rate 125 g/ha, Postemergence): 0
- Nutsedge plant response rating ([11]; Rate 125 g/ha, Preemergence): 0
- Plant response rating, Nutsedge ([11]; Rate 250 g/ha, Postemergence): 0
- Plant response rating, Nutsedge ([11]; Rate 250 g/ha, Preemergence): 0
- Plant response rating, Rape (rape (Brassica napus); Rate 62 g/ha, Postemergence): 4
- Rape plant response rating (rape (Brassica napus); Rate 62 g/ha, Preemergence): 0
- Plant response rating, Rape (rape (Brassica napus); Rate 125 g/ha, Postemergence): 7
- Rape plant response rating (rape (Brassica napus); Rate 125 g/ha, Preemergence): 0
- Plant response rating, Rape (rape (Brassica napus); Rate 250 g/ha, Postemergence): 9
- Plant response rating, Rape (rape (Brassica napus); Rate 250 g/ha, Preemergence): 0
- Plant response rating, Sugarbeets ([12]; Rate 62 g/ha, Postemergence): 7
- Sugarbeets plant response rating ([12]; Rate 62 g/ha, Preemergence): 3
- Plant response rating, Sugarbeets ([12]; Rate 125 g/ha, Postemergence): 7
- Sugarbeets plant response rating ([12]; Rate 125 g/ha, Preemergence): 6
- Plant response rating, Sugarbeets ([12]; Rate 250 g/ha, Postemergence): 9
- Plant response rating, Sugarbeets ([12]; Rate 250 g/ha, Preemergence): 6
- Plant response rating, Blackgrass ([13]; Rate 62 g/ha, Postemergence): 2
- Blackgrass plant response rating ([13]; Rate 62 g/ha, Preemergence): 0
- Plant response rating, Blackgrass ([13]; Rate 125 g/ha, Postemergence): 2
- Blackgrass plant response rating ([13]; Rate 125 g/ha, Preemergence): 0
- Plant response rating, Blackgrass ([13]; Rate 250 g/ha, Postemergence): 2
- Plant response rating, Blackgrass ([13]; Rate 250 g/ha, Preemergence): 1
- Plant response rating, Wheat ([14]; Rate 62 g/ha, Postemergence): 1
- Wheat plant response rating ([14]; Rate 62 g/ha, Preemergence): 0
- Plant response rating, Wheat ([14]; Rate 125 g/ha, Postemergence): 3
- Wheat plant response rating ([14]; Rate 125 g/ha, Preemergence): 0
- Plant response rating, Wheat ([14]; Rate 250 g/ha, Postemergence): 3
- Plant response rating, Wheat ([14]; Rate 250 g/ha, Preemergence): 0
- Plant response rating, Giant foxtail ([15]; Rate 62 g/ha): 1
- Giant foxtail plant response rating ([15]; Rate 62 g/ha): 0
- Plant response rating, Giant foxtail ([15]; Rate 125 g/ha): 1
- Giant foxtail plant response rating ([15]; Rate 125 g/ha): 0
- Plant response rating, Giant foxtail ([15]; Rate 250 g/ha): 1
- Plant response rating, Corn (corn (Zea mays); Rate 62 g/ha, Postemergence): 2
- Corn plant response rating (corn (Zea mays); Rate 62 g/ha, Preemergence): 0
- Plant response rating, Corn (corn (Zea mays); Rate 125 g/ha, Postemergence): 2
- Corn plant response rating (corn (Zea mays); Rate 125 g/ha, Preemergence): 0
- Plant response rating, Corn (corn (Zea mays); Rate 250 g/ha, Postemergence): 2
- Plant response rating, Corn (corn (Zea mays); Rate 250 g/ha, Preemergence): 0
